Data published in ChEMBL document CHEMBL1144428 (J Med Chem, 2005).

Molecular target: T1, Prostaglandin G/H synthase 1 (Mus musculus, UniProt P22437)
T1 sequence (P22437 whole entry): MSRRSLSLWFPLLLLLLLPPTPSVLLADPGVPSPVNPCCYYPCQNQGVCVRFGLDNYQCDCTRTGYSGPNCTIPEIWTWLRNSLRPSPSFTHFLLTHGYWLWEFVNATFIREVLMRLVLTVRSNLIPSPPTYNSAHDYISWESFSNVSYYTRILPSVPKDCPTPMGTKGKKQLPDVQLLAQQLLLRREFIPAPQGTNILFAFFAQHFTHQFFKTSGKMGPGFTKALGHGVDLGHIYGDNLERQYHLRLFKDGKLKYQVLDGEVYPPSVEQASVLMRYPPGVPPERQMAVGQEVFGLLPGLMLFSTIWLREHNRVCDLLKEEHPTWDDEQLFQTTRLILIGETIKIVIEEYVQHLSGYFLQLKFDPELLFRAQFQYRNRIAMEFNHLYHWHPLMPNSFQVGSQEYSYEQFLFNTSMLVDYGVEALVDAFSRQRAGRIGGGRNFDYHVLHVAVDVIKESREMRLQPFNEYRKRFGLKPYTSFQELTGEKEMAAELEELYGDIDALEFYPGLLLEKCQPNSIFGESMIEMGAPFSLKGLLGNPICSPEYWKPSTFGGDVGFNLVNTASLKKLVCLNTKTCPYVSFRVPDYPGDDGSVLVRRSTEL
Description: In vitro inhibitory activity against Prostaglandin G/H synthase 1 in murine J774 cells

IC50, > 100 µM:
CCOC(=O)Cc1cc(-c2ccc(S(C)(=O)=O)cc2)n(-c2ccc(C)cc2)c1C
CCOC(=O)Cc1cc(-c2ccc(S(C)(=O)=O)cc2)n(-c2ccccc2)c1C
Cc1c(CC(=O)O)cc(-c2ccc(S(C)(=O)=O)cc2)n1-c1ccccc1
CCOC(=O)C(=O)c1cc(-c2ccc(S(C)(=O)=O)cc2)n(-c2ccc(C)cc2)c1C
CCOC(=O)Cc1cc(-c2ccc(S(C)(=O)=O)cc2)n(-c2ccc(C(F)(F)F)cc2)c1C
CCOC(=O)C(=O)c1cc(-c2ccc(S(C)(=O)=O)cc2)n(-c2ccc(C(F)(F)F)cc2)c1C
Cc1ccc(-n2c(-c3ccc(S(C)(=O)=O)cc3)cc(CC(=O)O)c2C)cc1
Cc1c(CC(=O)O)cc(-c2ccc(S(C)(=O)=O)cc2)n1-c1ccc(C(F)(F)F)cc1
CCOC(=O)C(=O)c1cc(-c2ccc(S(C)(=O)=O)cc2)n(-c2ccccc2)c1C
